Measurements published in patent US8329645B2, “Polymyxin derivatives and uses thereof” (priority 2008, dated 2012).
≈ marks a conversion by molar mass, not a printed value. Like-named read-outs stand apart in the source and are kept apart here. Where a SMILES comes first, the peptide text is derived from it. Bridges are numbered along the chain shown (N, C = ends). [ ]: non-standard residue; d: D form. The star is where a group is joined. Decanoyl = CCCCCCCCCC(=O)*; Octanoyl = CCCCCCCC(=O)*; Dab = NCC[C@H](N)C(=O)O; Abu = CC[C@H](N)C(=O)O

Experiments:
[1] = test system: Ps. aeruginosa ATCC 27853; assay: Sensitization to rifampin: growth inhibition around wells on LB plates containing rifampin; format: cell-based, Pseudomonas aeruginosa; conditions: 4 μg
E. coli F18 = format: cell-based, Escherichia coli
Description: The MIC values of NAB 739, NAB 740, and NAB7061 were determined by using the agar dilution method according to the CLSI protocol M7-A7. Polymyxin B sulfate (Sigma-Aldrich, St. Louis, Mo., USA) was used as a control. […]; two-fold increments) of the test substances were used. The bacterial test strains originated from ATCC (10 strains), CCUG (11 strains), and NCTC (3 strains). Fourteen (14) strains (the F-strains) were purchased from Mobidiag Ltd., Helsinki, Finland. Besides bacteria, the MIC was also determined for the yeast Candida albicans (ATCC 28366 from ATCC).
(§1) The inocula were prepared by adjusting the bacterial suspensions to a density equivalent to OD546 nm˜0.3 (˜10^8 CFU/ml˜0.5 McFarland) the yeast suspension to a density equivalent to OD546 nm˜0.75 (˜2×10^7 CFU/ml)._The suspensions were diluted to 10^7 CFU/ml. The plates were inoculated by using a Denley Multipoint Inoculator, 1 μl per spot corresponding to approx. 10^4 CFU/spot. Plates were incubated for 16-20 hours at 35° C.

E. coli IH3080 [2] = assay: Sensitization to rifampin: growth inhibition around wells on LB plates containing rifampin; format: cell-based, Escherichia coli; conditions: 4 μg of compound
[3] = test system: Pseudomonas aeruginosa ATCC 27853; assay: Growth inhibition around wells on LB agar plates; format: cell-based; conditions: Ps. aeruginosa ATCC 27853
How it was run: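 Activity against Pseudomonas aeruginosa ATCC 27853 was assessed by agar well diffusion on LB plates. A suspension of about 10^8 cells/ml in 0.9% NaCl was spread over the agar and the excess removed. Once the surface had dried, 2 mm wells were drilled and filled with peptide dissolved in 0.9% NaCl. Plates were incubated 18 h at 37° C, and inhibition zone diameters were converted to areas in square mm.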

[4] = target: brush-border membrane (BBM) from the renal cortex; assay: Inhibition of binding of radiolabelled gentamycin to brush-border membrane vesicles; conditions: rat renal cortex BBM vesicles; 20 μM [3H] gentamycin; 60 min at 4° C.
Source text: The binding of the compounds according to this invention to isolated brush-border membrane (BBM) from the renal cortex can be measured indirectly by measuring their ability to inhibit the binding of radiolabelled gentamycin to BBM. Accordingly, the compounds according to this invention that have less affinity to BBM than for example polymyxin B inhibit the binding of radiolabelled gentamycin to a lesser degree than does polymyxin B.
BBM was isolated from the renal cortex of male albino rats by using the Mg^2+/EGTA precipitation technique as described by Nagai et al. (2006). The binding of gentamycin was measured, according to the method described by Nagai et al. (2006) by incubating BBM vesicles (20 μl) in 10 mM HEPES (pH 7.5) with 300 mM mannitol in the presence of 20 μM [^3H] gentamycin (American Radiolabeled Chemicals, Inc. (St. Louis, Mo., U.S.A.) with or without the compound to be tested or a positive control. After an incubation of 60 min at 4° C., 1 ml of ice-cold buffer described above was added, and the mixture was filtered through a Millipore filter (0.45 μm; HAWP). The filter was washed with the buffer and the radioactivity remaining in the filter was measured by using a liquid scintillation counter. The IC50 values were determined as in Nagai et al. (2006) using the Hill equation.

C. albicans ATCC 28366 = test system: C. albicans ATCC 28366
Description: Polymyxin B sulfate (Sigma-Aldrich, St. Louis, Mo., USA) was used as a control. […] The bacterial test strains originated from ATCC (10 strains), CCUG (11 strains), and NCTC (3 strains). Fourteen (14) strains (the F-strains) were purchased from Mobidiag Ltd., Helsinki, Finland.
as §1

A. baumannii ATCC 19606 = assay: Sensitization to rifampin: growth inhibition around wells on LB plates containing rifampin; format: cell-based, Acinetobacter baumannii; conditions: 4 μg
[5] = test system: Acinetobacter baumannii ATCC 19606; assay: Growth inhibition around wells on LB agar plates; format: cell-based; conditions: A. baumannii ATCC 19606
E. coli IH3080 [6] = assay: Growth inhibition around wells on LB agar plates; format: cell-based, Escherichia coli
How it was run: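 Growth inhibition of encapsulated E. coli IH3080 (K1:O018) was assessed on LB agar plates. A suspension of about 10^8 cells/ml in 0.9% NaCl, made from an overnight LB agar culture, was spread across the plate surface and the excess removed. After drying, 2 mm wells were drilled, with 0.9% NaCl as control. Following 18 h at 37° C., inhibition zone diameters around wells were converted to areas in square mm.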

With `CCCCCCCC(=O)N[C@H](C(=O)N[C@H](CO)C(=O)N[C@H]1CCNC(=O)[C@H]([C@@H](C)O)NC(=O)[C@H](CCN)NC(=O)[C@H](CCN)NC(=O)[C@H](CC(C)C)NC(=O)[C@@H](Cc2ccccc2)NC(=O)[C@H](CCN)NC1=O)[C@@H](C)O` [NAB 739, OA-Thr-DSer-cy[Dab-Dab-DPhe-Leu-Dab-Dab-Thr-]] (Octanoyl-T[dS][Dab][Dab][dF]L[Dab][Dab]T; lactam 3-C) the “growth inhibition around a well in the presence of rifampin” value ([1]; rifampin 0 μg/ml) was 38 square millimeters, the “growth inhibition around a well in the presence of rifampin” value ([1]; rifampin 0.3 μg/ml) was 64 square millimeters and the MIC (E. coli F18) was 1 µg/mL (≈ 0.929 µM). For the same molecule, the “growth inhibition around a well in the presence of rifampin” value (E. coli IH3080 [2]; rifampin 0 μg/ml) was 133 square millimeters, the “growth inhibition around a well in the presence of rifampin” value (E. coli IH3080 [2]; rifampin 0.1 μg/ml) was 177 square millimeters and the “growth inhibition around a well in the presence of rifampin” value (E. coli IH3080 [2]; rifampin 1.0 μg/ml) was 201 square millimeters. For the same molecule, the “growth inhibition around a well” value ([3]; 4 μg) was 38 square millimeters, the “growth inhibition around a well” value ([3]; 10 μg) was 79 square millimeters and the IC50 [4] was 264 ± 91 µM. The MIC (C. albicans ATCC 28366; ATCC 28366) was >32 µg/mL, the “growth inhibition around a well in the presence of rifampin” value (A. baumannii ATCC 19606; rifampin 0 μg/ml) was 113 square millimeters and the “growth inhibition around a well in the presence of rifampin” value (A. baumannii ATCC 19606; rifampin 0.1 μg/ml) was 177 square millimeters. For the same molecule, the “growth inhibition around a well in the presence of rifampin” value (A. baumannii ATCC 19606; rifampin 0.3 μg/ml) was 314 square millimeters, the “growth inhibition around a well” value ([5]; 4 μg) was 113 square millimeters and the “growth inhibition around a well” value ([5]; 10 μg) was 177 square millimeters.

`CCCCCCCCCC(=O)N[C@H](C(=O)N[C@H](CO)C(=O)N[C@H]1CCNC(=O)[C@H]([C@@H](C)O)NC(=O)[C@H](CCN)NC(=O)[C@H](CCN)NC(=O)[C@H](CC(C)C)NC(=O)[C@@H](Cc2ccccc2)NC(=O)[C@H](CCN)NC1=O)[C@@H](C)O` [NAB 740, DA-Thr-DSer-cy[Dab-Dab-DPhe-Leu-Dab-Dab-Thr-]] (Decanoyl-T[dS][Dab][Dab][dF]L[Dab][Dab]T; lactam 3-C) was tested, and the “growth inhibition around a well in the presence of rifampin” value ([1]; rifampin 0 μg/ml) was 64 square millimeters, the “growth inhibition around a well in the presence of rifampin” value ([1]; rifampin 0.1 μg/ml) was 64 square millimeters and the “growth inhibition around a well in the presence of rifampin” value ([1]; rifampin 0.3 μg/ml) was 64 square millimeters. The “growth inhibition around a well” value (E. coli IH3080 [6]; 10 μg of compound per well) was 133 square millimeters, the MIC (E. coli F18) was 2 µg/mL (≈ 1.81 µM) and the “growth inhibition around a well in the presence of rifampin” value (E. coli IH3080 [2]; rifampin 0 μg/ml) was 95 square millimeters. For the same molecule, the “growth inhibition around a well in the presence of rifampin” value (E. coli IH3080 [2]; rifampin 0.1 μg/ml) was 95 square millimeters, the “growth inhibition around a well in the presence of rifampin” value (E. coli IH3080 [2]; rifampin 1.0 μg/ml) was 95 square millimeters and the “growth inhibition around a well” value ([3]; 4 μg) was 64 square millimeters. For the same molecule, the “growth inhibition around a well” value ([3]; 10 μg) was 133 square millimeters, the IC50 [4] was 198 ± 49 µM and the MIC (C. albicans ATCC 28366; ATCC 28366) was >32 µg/mL. For the same molecule, the “growth inhibition around a well in the presence of rifampin” value (A. baumannii ATCC 19606; rifampin 0 μg/ml) was 133 square millimeters, the “growth inhibition around a well in the presence of rifampin” value (A. baumannii ATCC 19606; rifampin 0.3 μg/ml) was 154 square millimeters and the “growth inhibition around a well” value ([5]; 4 μg) was 133 square millimeters. For the same molecule, the “growth inhibition around a well” value ([5]; 10 μg) was 201 square millimeters.

`CCCCCCCC(=O)N[C@H](C(=O)N[C@@H](CC)C(=O)N[C@H]1CCNC(=O)[C@H]([C@@H](C)O)NC(=O)[C@H](CCN)NC(=O)[C@H](CCN)NC(=O)[C@H](CC(C)C)NC(=O)[C@@H](Cc2ccccc2)NC(=O)[C@H](CCN)NC1=O)[C@@H](C)O` [NAB 7061, OA-Thr-Abu-cy[Dab-Dab-DPhe-Leu-Dab-Dab-Thr-]] (Octanoyl-T[Abu][Dab][Dab][dF]L[Dab][Dab]T; lactam 3-C) was tested, and the “growth inhibition around a well in the presence of rifampin” value ([1]; rifampin 0 μg/ml) was 0 square millimeters, the “growth inhibition around a well in the presence of rifampin” value ([1]; rifampin 0.1 μg/ml) was 0 square millimeters and the “growth inhibition around a well in the presence of rifampin” value ([1]; rifampin 0.3 μg/ml) was 0 square millimeters. For the same molecule, the “growth inhibition around a well” value (E. coli IH3080 [6]; 4 μg of compound per well) was 0 square millimeters, the MIC (E. coli F18) was >32 µg/mL and the “growth inhibition around a well in the presence of rifampin” value (E. coli IH3080 [2]; rifampin 0 μg/ml) was 0 square millimeters. The “growth inhibition around a well” value ([3]; 4 μg) was 0 square millimeters, the “growth inhibition around a well” value ([3]; 10 μg) was 0 square millimeters and the MIC (C. albicans ATCC 28366; ATCC 28366) was >32 µg/mL. For the same molecule, the “growth inhibition around a well in the presence of rifampin” value (A. baumannii ATCC 19606; rifampin 0 μg/ml) was 0 square millimeters, the “growth inhibition around a well in the presence of rifampin” value (A. baumannii ATCC 19606; rifampin 0.3 μg/ml) was 50 square millimeters and the “growth inhibition around a well” value ([5]; 4 μg) was 0 square millimeters. For the same molecule, the “growth inhibition around a well” value ([5]; 10 μg) was 0 square millimeters.

Polymyxin B [reference compound] was tested, and the “growth inhibition around a well” value (E. coli IH3080 [6]; 4 μg of compound per well, listed as Polymyxin B sulfate) was 95 square millimeters, the MIC (E. coli F18) was 0.5 µg/mL and the “growth inhibition around a well in the presence of rifampin” value (E. coli IH3080 [2]; rifampin 0 μg/ml) was 79 square millimeters. For the same molecule, the “growth inhibition around a well in the presence of rifampin” value (E. coli IH3080 [2]; rifampin 0.1 μg/ml) was 95 square millimeters, the “growth inhibition around a well in the presence of rifampin” value (E. coli IH3080 [2]; rifampin 1.0 μg/ml) was 104 square millimeters and the “growth inhibition around a well” value ([3]; 10 μg) was 133 square millimeters. For the same molecule, the IC50 [4] was 39.3 ± 5.5 µM and the MIC (C. albicans ATCC 28366; C. albicans ATCC 28366) was >32 µg/mL.
